The values that follow are results of earlier work, collected in paper PMC8477420 (ChemMedChem, 2020).

The test system of one data set is MOLM-13 cells. To be noted: monotherapy.
In the next data set the test system is OCI-AML-3 cells. To be noted: monotherapy.
The test system of the next data set is OCI-AML-2 cells. The following applies: monotherapy.

For `COc1ncc(-c2nc3c(n2C(C)C)[C@H](c2ccc(Cl)cc2)N(c2cc(Cl)cn(C)c2=O)C3=O)c(OC)n1` [HDM201], the values for the viability in the data set on MOLM-13 cells, in the data set with OCI-AML-3 cells and in the data set on OCI-AML-2 cells were 80%, “no reduction” and 80%, respectively.
Turning to `Cc1c(-c2c(-c3ccc(F)o3)sc3ncnc(O[C@H](Cc4ccccc4OCc4ccnn4CC(F)(F)F)C(=O)O)c23)ccc(OCCN2CCN(C)CC2)c1Cl` [Compound S63845], the viability (as a rule, a read-out of living cells in per cent, often relative to untreated cells) was 60–70% in the data set with MOLM-13 cells, 60–70% with OCI-AML-3 cells and 95% in the data set on OCI-AML-2 cells.
On to `COc1ccc(C2=N[C@@H](c3ccc(Cl)cc3)[C@@H](c3ccc(Cl)cc3)N2C(=O)N2CCNC(=O)C2)c(OC(C)C)c1` [Nutlin-3a], for which the “inhibition of Bcl-2” value in the data set on Bcl-2 is “low micromolar inhibition”.
